# Where no end group is shown, it is not given here.
# Assays:
# 4T1 cells = assay: Spontaneous lung metastasis clonogenic assay in 4T1 xenograft mouse model; type: in vivo, BALB/c female mice; details: 10 mg/kg once a day for eight days, intraperitoneal injection, HIV-TAT fused peptide; versus scrambled control
# Experimental: All experimental procedures were conducted following the Federation of Laboratory Animal Science Association (FELSA) and were approved by the Bar-Ilan University animal use and care committee. Mouse xenograft tumors were generated by injecting 10^6 4T1 cells resuspended in 20% collagen I (BD Biosciences, Franklin Lakes, NJ, USA) in PBS into the lower-left mammary gland of 8-week-old BALB/c female mice. […] 4T1 cells have intrinsic resistance to 6-thioguanine, which enables precise quantification of metastatic cells, even when they are disseminated at sub-microscopic levels at distant organs, upon excision and digestion of selected organs. The clonogenic assay is based on a principle by which one colony represents one metastatic cell. Briefly, spontaneous lung metastasis was measured in BALB/c mice bearing orthotopic 4T1 tumors of equal size (1-1.2 cm in diameter). Lungs were excised and minced and plated in RPMI/10% FBS in the presence of 6-thioguanine to select for tumor cells only. Cells were plated in a 5% CO2 incubator at 37° C. for 14 days to form 4T1 colonies. On day 14 after plating, the medium was removed from dishes, and colonies were fixed in 4% paraformaldehyde for one hour at room temperature. Colonies were then stained in 2% crystal violet solution and thoroughly washed with PBS. Plates were allowed to air dry, and colonies in each plate were quantified. […]
# [1] = tested on: interaction between Pyk2 and cortactin in invadopodia; assay: Acceptor photobleaching FRET assay; type: cell-based, human; details: 0.1, 1, 5 μM peptide; mature matrix-degrading invadopodia
# Experimental: Acceptor photobleaching experiments were performed as described in Genna et al., 2018 (supra). In brief, cortactin-TagRFP MDA-MB-231 cells were plated on Alexa 405 gelatin in a medium containing Pyk2-PRR or scrambled control peptides at 0.1, 1, and 5 μM concentration, fixed, and immunostained with pY402-Pyk2/Alexa Fluor 488-goat anti-rabbit (donor) and cortactin/Alexa Fluor 555-goat anti-mouse (acceptor). As a control, cells were stained with Tks5/Alexa Fluor 488-goat anti-rabbit (donor) and cortactin/Alexa Fluor 555-goat anti-mouse (acceptor). Co-localization of cortactin with degradation holes in Alexa 405-labeled gelatin was used to identify mature degrading invadopodia. For all FRET experiments, cells were imaged in PBS at room temperature on a laser-scanning inverted confocal microscope (Zeiss LSM780; 60×, NA 1.4, oil objective). A region of interest surrounding invadopodia was bleached using 100% 561-nm laser power (acceptor channel), and images were acquired in both the 488 nm and the 561 nm channels before and after bleaching. FRET efficiency was calculated as the E=1−(donor pre/donor post) in background-subtracted images and was corrected for fluctuations in laser power and donor bleaching in ImageJ.
# MDA-MB-231 cells [2] = assay: Invadopodium precursor formation assay; type: cell-based, human; details: 4 h, 0.1, 1 or 5 μM peptide
# Experimental: The invadopodium precursor formation assay was performed as described in Genna et al., 2018 (supra). Briefly, gelatin was conjugated to Alexa 405 dye (Thermo Fisher Scientific). MatTek dishes were treated with 1 N HCl and coated with 50 μg/ml poly-L-lysine. A 0.2% gelatin solution was prepared in PBS, and a 1:20 mixture of Alexa 405-labeled gelatin/unlabeled gelatin was warmed to 37° C. before addition to the poly-L-lysine coated plates. Gelatin was cross-linked with 0.01% glutaraldehyde followed by quenching with 5 mg/ml sodium borohydride. 125,000 MDA-MB-231 cells were plated on Alexa 405-labeled gelatin plates in the presence of 0.1, 1, or 5 μM of Pyk2-PRR peptides or scrambled control for 4 h. At the end of incubation, cells were fixed in 3.7% paraformaldehyde, permeabilized with 0.1% Triton X-100, blocked with 1% FBS, 1% BSA in PBS, and labeled with anti-Tks5 and anti-cortactin. Images were acquired using an inverted fluorescent microscope (Leica AF6000; 63×, NA 1.4, oil objective, Leica LAS AF acquisition software) (Wetzlar, Germany) equipped with an ORCA-Flash 4.0 V2 digital CMOS camera (Hamamatsu Photonics, Shizuoka, Japan).
# MDA-MB-231 cells [3] = assay: ECM degradation assay; type: cell-based, human; details: 24 h on fluorescent fibronectin/gelatin matrix; compared to control peptide
# Experimental: The in vitro matrix degradation assay was performed as described in Genna et al., 2018 (supra). Briefly, MatTek dishes were treated with 2.5% gelatin/2.5% sucrose, cross-linked with 0.5% glutaraldehyde, treated with 10 μg/ml of fluorescently labeled fibronectin (Alexa 568; Invitrogen, Thermo Fischer Scientific), and then with 1 mg/ml NaBH4 in PBS. 125,000 cells were plated on the fibronectin/gelatin matrix in Pyk2-PRR or control peptides and allowed to degrade for 24 h. Cells were then fixed in 3.7% paraformaldehyde, and random fields were imaged using an inverted fluorescent microscope (Leica AF6000; 40×, NA 1.3, oil objective). ECM degradation was analyzed by quantifying the average degraded area in pixels per field using ImageJ.
# [4] = molecular target: T1, cortactin-SH3 domain (mouse cortactin SH3 domain, GenBank ID U03184; nucleotides 1468-1641) (mouse, UniProt Q60598 490-546, isotopically labeled (15N, 13C and/or 2H) for NMR); assay: NMR chemical shift titration
# T1 construct: domain: SH3 domain; also called purified cortactin-SH3
# T1 sequence (Q60598 490-546 limits assumed, one chain of several): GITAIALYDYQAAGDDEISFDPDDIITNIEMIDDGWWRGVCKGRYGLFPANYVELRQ
# [5] = molecular target: T1, cortactin-SH3 domain (mouse cortactin …); assay: NMR chemical shift titration (1H,15N-HSQC), unlabeled peptide into 15N-SH3
molecule,measurement,setting,value
"TAFQEPAPKASQAQYRPPP [Pyk2 super-mutant, TAFQEPAPKASQAQYRPPP]",lung metastases (6-thioguanine-resistant colonies),4T1 cells,no significant differences in colony number
same,interaction between Pyk2 and cortactin in invadopodia (FRET),[1],does not significantly inhibit
same,"mature, matrix-degrading invadopodia",MDA-MB-231 cells [2]; co-localization with degradation regions,small but significant reduction
same,immature invadopodium precursors,MDA-MB-231 cells [2]; cortactin and Tks5 co-localization,no significant effect
same,matrix degradation (degradation area),MDA-MB-231 cells [3],small but significant reduction
TAFQEPPPKPSRPKYRPPP (Unlabeled synthetic peptide as used in the NMR experiments; Positions count on UniProt Q14289) [Pyk2-PRR2 peptide (SEQ ID NO: 1)],fold higher affinity than Pyk2-PRR3,[4],16 fold
same,Kd,[5],40 µM

# Reference: patent US20240368566A1, “PYK2-DERIVED PEPTIDES FOR INHIBITING INVADOPODIA-MEDIATED CANCER METASTASIS” (BAR-ILAN UNIVERSITY, priority 2023, published 2024)
